Non-standard residues stand in square brackets, D forms with d. Residues, ends and D or L forms follow the SMILES beside them. *: point of attachment. Octanoyl = CCCCCCCC(=O)*
Assays:
[1] = tested on: E. coli CFT073 ATCC 700928 and/or E. coli Nissle 1917; assay: Cell-based assay with ClbP with LCMS, ClbP positive strain; conditions: for % Remaining in ClbP Positve Relative to Media-Only: ClbP-encoding E. coli, 10 μM compound, 37° C., 20 h; for Difference between the ClbP Positive and ClbP Negative release profiles: conclusion from Table 4
Protocol: (§1) This example is representative of the methods described in Example 97. ClbP was tested for its ability to activate compounds. […] Each of these three strains was struck out onto an appropriate solid media such as LB agar or BHI agar. The bacteria were then grown aerobically overnight at 37° C.
(§2) A single colony was isolated from the plate and inoculated into 10 mL LB. The liquid cultures were grown overnight aerobically at 37° C. with rocking on a nutator.
(§3) The saturated E. coli cultures were transferred into a biosafety cabinet. 5 μL of each culture was inoculated into fresh LB broth (200 μL total, 1:40 (v/v) dilution of the overnight culture), and the tested compound was added to a final concentration of 10 μM. To establish the native stability of the compound in media alone, the compound was also added to uninoculated media at a final concentration of 10 μM. Each compound was tested in duplicate with each strain or the media-alone incubation. The plate was sealed and incubated aerobically on a nutator at 37° C. for 20 h.
(§4) After 20 h, the reactions were stopped by addition of 200 μL acetonitrile. The contents of each well were mixed, and then the plate was centrifuged (4,000 rpm, 10 min). The plate was diluted serially to a final dilution of 1:100 first with Acetonitrile (10× dilution) and then with (4:1) Mobile Phase A-20 mM ammonium formate+water:Mobile Phase B-Isopropanol:Methanol:Water (4:4:2)+20 mM ammonium formate (10× dilution).
(§5) The amount of each remaining parent compound in each incubation was quantified by LC-MS analysis, with multiple-reaction monitoring targeting transitions specific to each parent compound.
(§6) The amount of compound present in the media-alone condition was normalized to 100%. The amount of parent compound present in the reaction with the ClbP-encoding E. coli (E. coli CFT073 ATCC 700928 and/or E. coli Nissle 1917) was compared to the amount present in the media-alone and expressed as a percent. Likewise, the amount of parent compound present in the reaction with the negative control E. coli BL21(DE3) was compared to the amount present in the media-alone and expressed as a percent.
(§7) In an ideal case, the amount of residual starting material in the reaction(s) with ClbP-encoding E. coli was <25% of the amount in the E. coli BL21(DE3) and media-alone conditions. In an acceptable case, the amount of residual starting material in the reaction(s) with ClbP-encoding E. coli was 25-75% of the amount in the E. coli BL21(DE3) and media-alone conditions. In a non-preferred case, the amount of residual starting material in the reaction(s) with ClbP-encoding E. coli was >75% of the amount in the E. coli BL21(DE3) and media-alone conditions.

[2] = In vitro Colonic Material Stability Assay; format: in vitro ADME; conditions: colonic material slurry, anaerobic, 1 or 10 μM, 24 h
Protocol: Assay 3 In vitro Colonic Material Stability Assay. This assay was used to assess the stability of an acylated active agent in a large intestine. All experiments were performed in an anaerobic chamber containing 90% nitrogen, 5% hydrogen and 5% carbon dioxide. Colonic material was resuspended as a slurry (15% w/v final concentration) in pre-reduced, anaerobically sterilized dilution blanks (Anaerobe Systems AS-908). The colonic material was then inoculated into 96 well plates containing YCFAC media (Anaerobe Systems AS-680) or other suitable media (6.7 μL slurry into 1 mL total media). Compounds or groups of compounds were added to each individual well to reach a final analyte concentration of 1 or 10 μM, and the material was mixed by pipetting. Sample was removed after set timepoints (0, 120, 240, 480, 1440, 2880 minutes after initiation of the assay), quenched with acetonitrile containing internal standard, and analyzed by LC/MS.

E. coli BL21(DE3) = assay: Cell-based assay with ClbP with LCMS, ClbP negative strain; conditions: 10 μM compound, 37° C., 20 h
Protocol: as §1, §2, §3, §4, §5, §6, §7

| SMILES | % Remaining in ClbP Positve Relative to Media-Only [1] | Assay 3 (% Remaining at 24 h) [2] | % Remaining in ClbP Negative Relative to Media-Only (E. coli BL21(DE3)) | Difference between the ClbP Positive and ClbP Negative release profiles [1] |
| --- | --- | --- | --- | --- |
| COC(=O)[C@H](C)NC(=O)[C@@H](CC(N)=O)NC(=O)c1cn(C2CC2)c2cc(N3CCNCC3)c(F)cc2c1=O [Example 19, Methyl (1-cyclopropyl-6-fluoro-4-oxo-7-(piperazin-1-yl)-1,4-dihydroquinoline-3-carbonyl)-D-asparaginyl-L-alaninate] | + (between 25-75% compound remaining in the 20 μM WT ClbP reaction relative to the no-enzyme control) | A (<25% of the tested compound remaining) | − (>75% compound remaining in the 20 μM WT ClbP reaction relative to the no-enzyme control) |  |
| CCCCCCCCCCCCCC(=O)N[C@H](CC(N)=O)C(=O)N[C@@H](C)CNC(=O)OC [Example 23, Methyl ((S)-2-((R)-4-amino-4-oxo-2-tetradecanamidobutanamido)propyl)carbamate] | + (between 25-75% compound remaining in the 20 μM WT ClbP reaction relative to the no-enzyme control) |  | − (>75% compound remaining in the 20 μM WT ClbP reaction relative to the no-enzyme control) |  |
| CCCCCCCCCCCCCC(=O)N[C@H](CC(N)=O)C(=O)N[C@@H](C)CCC(=O)Oc1ccc2nc3c(c(CC)c2c1)Cn1c-3cc2c(c1=O)COC(=O)[C@]2(O)CC [Example 24, (S)-4,11-diethyl-4-hydroxy-3,14-dioxo-3,4,12,14-tetrahydro-1H-pyrano[3′,4′:6,7]indolizino[1,2-b]quinolin-9-yl (S)-4-((R)-4-amino-4-oxo-2-tetradecanamidobutanamido)pentanoate] | + (between 25-75% compound remaining in the 20 μM WT ClbP reaction relative to the no-enzyme control) |  | − (>75% compound remaining in the 20 μM WT ClbP reaction relative to the no-enzyme control) |  |
| CCCCCCCCCCCCCC(=O)N[C@H](CC(N)=O)C(=O)NCCN(C)C(=O)OC [Example 30, Methyl (R)-(2-(4-amino-4-oxo-2-tetradecanamidobutanamido)ethyl)(methyl)carbamate] | + (between 25-75% compound remaining in the 20 μM WT ClbP reaction relative to the no-enzyme control) |  | − (>75% compound remaining in the 20 μM WT ClbP reaction relative to the no-enzyme control) |  |
| CCCCCCCCCCCCCC(=O)N[C@H](CC(N)=O)C(=O)NCCN(C)C(=O)Oc1ccc(Br)cc1 [Example 31, 4-bromophenyl (R)-(2-(4-amino-4-oxo-2-tetradecanamidobutanamido)ethyl)(methyl)carbamate] | − (>75% compound remaining in the 20 μM WT ClbP reaction relative to the no-enzyme control) |  | − (>75% compound remaining in the 20 μM WT ClbP reaction relative to the no-enzyme control) |  |
| CCCCCCCC(=O)N[C@H](CC(N)=O)C(=O)NCCC(C)(C)C(=O)Oc1ccc2nc3c(c(CC)c2c1)Cn1c-3cc2c(c1=O)COC(=O)[C@]2(O)CC [Example 40, (S)-4,11-diethyl-4-hydroxy-3,14-dioxo-3,4,12,14-tetrahydro-1H-pyrano[3′,4′:6,7]indolizino[1,2-b]quinolin-9-yl 4-((R)-4-amino-2-octanamido-4-oxobutanamido)-2,2-dimethylbutanoate] | + (between 25-75% compound remaining in the 20 μM WT ClbP reaction relative to the no-enzyme control) |  | − (>75% compound remaining in the 20 μM WT ClbP reaction relative to the no-enzyme control) |  |
| CCCCCCCC(=O)N[C@H](CC(N)=O)C(=O)N[C@@H](C)CCC(=O)OC [Example 42, Methyl (S)-4-((R)-4-amino-2-octanamido-4-oxobutanamido)pentanoate] | − (>75% compound remaining in the 20 μM WT ClbP reaction relative to the no-enzyme control) | C (>75% of the tested compound remaining) | − (>75% compound remaining in the 20 μM WT ClbP reaction relative to the no-enzyme control) |  |
| CCCCCCCC(=O)N[C@H](CC(N)=O)C(=O)Nc1ccc(COC)cc1 [Example 44, (R)—N1-(4-(methoxymethyl)phenyl)-2-octanamidosuccinamide] | − (>75% compound remaining in the 20 μM WT ClbP reaction relative to the no-enzyme control) |  | − (>75% compound remaining in the 20 μM WT ClbP reaction relative to the no-enzyme control) |  |
| CCCCCCCC(=O)N[C@H](CC(N)=O)C(=O)NCCNC(=O)OC [Example 46, Methyl (R)-(2-(4-amino-2-octanamido-4-oxobutanamido)ethyl)carbamate] | ++ (<25% compound remaining in the 20 μM WT ClbP reaction relative to the control) |  | − (>75% compound remaining in the 20 μM WT ClbP reaction relative to the no-enzyme control) | particularly favorable difference |
| CCCCCCCC(=O)N[C@H](CC(N)=O)C(=O)N[C@@H](C)CNC(=O)Oc1ccc(Br)cc1 [Example 48, 4-bromophenyl ((S)-2-((R)-4-amino-2-octanamido-4-oxobutanamido)propyl)carbamate] | + (between 25-75% compound remaining in the 20 μM WT ClbP reaction relative to the no-enzyme control) |  | + (between 25-75% compound remaining in the 20 μM WT ClbP reaction relative to the no-enzyme control) |  |
| CCCCCCNC(=O)N[C@H](CC(N)=O)C(=O)N[C@@H](C)C(=O)OC [Example 53, Methyl (hexylcarbamoyl)-D-asparaginyl-L-alaninate] | ++ (<25% compound remaining in the 20 μM WT ClbP reaction relative to the control) |  | − (>75% compound remaining in the 20 μM WT ClbP reaction relative to the no-enzyme control) | particularly favorable difference |
| CCCCCCCC(=O)N[C@H](Cc1c[nH]cn1)C(=O)N[C@@H](C)C(=O)OC [Example 54, Methyl octanoyl-D-histidyl-L-alaninate] (Octanoyl-[dH]-Ala-OMe) | + (between 25-75% compound remaining in the 20 μM WT ClbP reaction relative to the no-enzyme control) |  | + (between 25-75% compound remaining in the 20 μM WT ClbP reaction relative to the no-enzyme control) |  |
| CCCC(=O)N[C@H](CC(N)=O)C(=O)N[C@@H](C)CCC(=O)Oc1ccc2nc3c(c(CC)c2c1)Cn1c-3cc2c(c1=O)COC(=O)[C@]2(O)CC [Example 58, (S)-4,11-diethyl-4-hydroxy-3,14-dioxo-3,4,12,14-tetrahydro-1H-pyrano[3′,4′:6,7]indolizino[1,2-b]quinolin-9-yl (S)-4-((R)-4-amino-2-butyramido-4-oxobutanamido)pentanoate] | ++ (<25% compound remaining in the 20 μM WT ClbP reaction relative to the control) |  | + (between 25-75% compound remaining in the 20 μM WT ClbP reaction relative to the no-enzyme control) |  |
| CCCCCCCC(=O)N[C@H](CC(N)=O)C(=O)NCCC(C)(C)C(=O)Oc1ccc2c(C)cc(=O)oc2c1 [Example 72A, 4-methyl-2-oxo-2H-chromen-7-yl (R)-4-(4-amino-2-octanamido-4-oxobutanamido)-2,2-dimethylbutanoate] | + (between 25-75% compound remaining in the 20 μM WT ClbP reaction relative to the no-enzyme control) |  | + (between 25-75% compound remaining in the 20 μM WT ClbP reaction relative to the no-enzyme control) |  |
